≈ marks a conversion by molar mass, not a printed value.
Experiments:
Assay in all cases: Bacterial growth minimal inhibitory concentration (microdilution, CLSI M7-A7)
Format in all cases: cell-based
[1] = tested on: Moraxella catarrhalis A894; details: quinolone-sensitive strain, cation-adjusted Mueller-Hinton Broth; for MIC: Moraxella catarrhalis, A894
Protocol: (§1) Minimal Inhibitory Concentrations (MICs; […]) were determined in cation-adjusted Mueller-Hinton Broth by a microdilution method following the description given in “Methods for Dilution Antimicrobial Susceptibility Tests for Bacteria that Grow Aerobically”, Approved standard, 7th ed., Clinical and Laboratory Standards Institute (CLSI) Document M7-A7, Wayne, Pa., USA, 2006.

[2] = tested on: Staphylococcus aureus A798; details: multiply-resistant strain (quinolone-resistant and methicillin-resistant), cation-adjusted Mueller-Hinton Broth; for MIC: Staphylococcus aureus, A798, read-out: MIC for S. aureus A798
Protocol: as §1

[3] = tested on: Streptococcus pneumonia ATTC49619; details: quinolone-sensitive strain, cation-adjusted Mueller-Hinton Broth; for MIC: Streptococcus pneumoniae, ATTC49619, read-out: MIC for S. pneumonia ATTC49619
Protocol: as §1

[4] = tested on: Enterococcus faecium A949; details: multiply-resistant strain (quinolone-resistant and vancomycin-resistant), cation-adjusted Mueller-Hinton Broth; for MIC: Enterococcus faecium, A949, read-out: MIC for E. faecium A949
Protocol: as §1

[5] = tested on: Staphylococcus aureus ATCC29213; details: methicillin-sensitive and quinolone-sensitive strain, cation-adjusted Mueller-Hinton Broth; for MIC: Staphylococcus aureus, ATCC29213, read-out: MIC for S. aureus ATCC29213
Protocol: as §1

Molecule | MIC [1] | MIC [2] | MIC [3] | MIC [4] | MIC [5] | MIC for M. catarrhalis A894 [1] | MIC for S. aureus A798 [2] | MIC for S. pneumonia ATTC49619 [3] | MIC for E. faecium A949 [4] | MIC for S. aureus ATCC29213 [5]
O=C(Cn1c(=O)ccc2ccc(F)cc21)NCCC1OC(=O)c2cc(C3=CCCC3)ccc21 (racemic) [Example 23, rac-N-[2-(5-Cyclopent-1-enyl-3-oxo-1,3-dihydro-isobenzofuran-1-yl)-ethyl]-2-(7-fluoro-2-oxo-2H-quinolin-1-yl)-acetamide] | > 8 µg/mL | 1 µg/mL (≈ 2.24 µM) | 4 µg/mL (≈ 8.96 µM) | 0.5 µg/mL (≈ 1.12 µM) | 0.25 µg/mL (≈ 0.56 µM) | – | – | – | – | –
O=C(Cn1c(=O)ccc2ccc(F)cc21)NCCC1OC(=O)c2cc(-c3cc(F)cc(F)c3)ccc21 (racemic) [Example 24, rac-N-{2-[5-(3,5-Difluoro-phenyl)-3-oxo-1,3-dihydro-isobenzofuran-1-yl]-ethyl}-2-(7-fluoro-2-oxo-2H-quinolin-1-yl)-acetamide] | 0.5 µg/mL (≈ 1.02 µM) | 0.5 µg/mL (≈ 1.02 µM) | 2 µg/mL (≈ 4.06 µM) | 0.5 µg/mL (≈ 1.02 µM) | 0.125 µg/mL (≈ 0.254 µM) | – | – | – | – | –
CC(C)=Cc1ccc2c(c1)C(=O)OC2CCNC(=O)Cn1c(=O)ccc2ccc(F)cc21 (racemic) [Example 25, rac-2-(7-Fluoro-2-oxo-2H-quinolin-1-yl)-N-{2-[5-(2-methyl-propenyl)-3-oxo-1,3-dihydro-isobenzofuran-1-yl]-ethyl}-acetamide] | 4 µg/mL (≈ 9.21 µM) | 0.25 µg/mL (≈ 0.575 µM) | 1 µg/mL (≈ 2.3 µM) | 0.5 µg/mL (≈ 1.15 µM) | 0.063 µg/mL (≈ 0.145 µM) | – | – | – | – | –
(S)-3-Oxo-5-phenyl-1,3-dihydro-isobenzofuran-1-carboxylic acid [2-((R)-9-fluoro-4-oxo-1,2-dihydro-4H-pyrrolo[3,2,1-ij]quinolin-1-ylamino)-ethyl]-amide and (S)-3-Oxo-5-phenyl-1,3-dihydro-isobenzofuran-1-carboxylic acid [2-((R)-9-fluoro-4-oxo-1,2-dihydro-4H-pyrrolo[3,2,1-ij]quinolin-1-ylamino)-ethyl]-amide [Example 14] | – | – | – | – | – | 4 µg/mL | 0.125 µg/mL | 2 µg/mL | 0.5 µg/mL | 0.125 µg/mL
(S)-9-Fluoro-1-[3-((R)-3-oxo-5-phenyl-1,3-dihydro-isobenzofuran-1-yl)-propylamino]-1,2-dihydro-pyrrolo[3,2,1-ij]quinolin-4-one and (S)-9-Fluoro-1-[3-((S)-3-oxo-5-phenyl-1,3-dihydro-isobenzofuran-1-yl)-propylamino]-1,2-dihydro-pyrrolo[3,2,1-ij]quinolin-4-one [Example 7] | – | – | – | – | – | 2 µg/mL | 0.125 µg/mL | 0.125 µg/mL | 0.125 µg/mL | 0.031 µg/mL
N—((R)-9-Fluoro-4-oxo-1,2-dihydro-4H-pyrrolo[3,2,1-ij]quinolin-1-ylmethyl)-2-((R)-3-oxo-5-phenyl-1,3-dihydro-isobenzofuran-1-yl)-acetamide and N—((R)-9-Fluoro-4-oxo-1,2-dihydro-4H-pyrrolo[3,2,1-ij]quinolin-1-ylmethyl)-2-((S)-3-oxo-5-phenyl-1,3-dihydro-isobenzofuran-1-yl)-acetamide [Example 1] | – | – | – | – | – | 0.25 µg/mL | ≦0.016 mg/L | 0.125 µg/mL | 0.125 µg/mL | ≦0.016 mg/L
rac-5-(2,5-Difluoro-phenyl)-3-oxo-1,3-dihydro-isobenzofuran-1-carboxylic acid [3-(7-fluoro-2-oxo-2H-quinolin-1-yl)-propyl]-amide [Example 20] | – | – | – | – | – | 0.25 µg/mL | 0.063 µg/mL | 2 µg/mL | 1 µg/mL | 0.063 µg/mL

Reference: patent publication US20160090383A1, “ANTIBACTERIAL PHTHALIDE DERIVATIVES” (priority 2013, published 2016)
